# From ChEMBL document CHEMBL5465560, “Selectivity Literature for EUbOPEN Chemogenomic Library” (2024)
# Experiments:
# [1] = biological target: Mitogen-activated protein kinase 9 (Homo sapiens, UniProt P45984); test: Selectivity interaction (Ambit KINOMEscan and KiNATiv profiling in Jurkat cells) EUB0000090b MAPK9; type: cell-based; conditions: at 1 µM
# [2] = system: Epidermal growth factor receptor (Homo sapiens), P00533 [L858R,T790M]; test: (§1) Selectivity interaction (Ambit KINOMEscan and KiNATiv profiling in Jurkat cells) EUB0000090b EGFR; type: cell-based; conditions: at 1 µM
# [3] = system: Epidermal growth factor receptor (Homo sapiens), P00533 [G719S]; test: as §1; type: cell-based; conditions: at 1 µM
# [4] = system: Epidermal growth factor receptor (Homo sapiens), P00533 [T790M]; test: as §1; type: cell-based; conditions: at 1 µM
# [5] = system: Epidermal growth factor receptor (Homo sapiens), P00533 [L858R]; test: as §1; type: cell-based; conditions: at 1 µM
# [6] = biological target: Epidermal growth factor receptor (Homo sapiens, UniProt P00533); test: as §1; type: cell-based; conditions: at 1 µM
# [7] = system: Epidermal growth factor receptor (Homo sapiens), P00533 [UNDEFINED MUTATION]; test: as §1; type: cell-based; conditions: at 1 µM
# [8] = system: Epidermal growth factor receptor (Homo sapiens), P00533 [L861Q]; test: as §1; type: cell-based; conditions: at 1 µM
# [9] = system: Epidermal growth factor receptor (Homo sapiens), P00533 [G719C]; test: as §1; type: cell-based; conditions: at 1 µM
# [10] = biological target: Mitogen-activated protein kinase kinase kinase 20 (Homo sapiens) (UniProt Q9NYL2); test: Selectivity interaction (ActivX KiNativ screen (kinase selectivity in THP-1 cell lysates)) EUB0000639a MAP3K20; type: subcellular; conditions: lysate
# Mitogen-activated protein kinase kinase kinase 20 (Homo sapiens), sequence (Q9NYL2 2-800 limits assumed): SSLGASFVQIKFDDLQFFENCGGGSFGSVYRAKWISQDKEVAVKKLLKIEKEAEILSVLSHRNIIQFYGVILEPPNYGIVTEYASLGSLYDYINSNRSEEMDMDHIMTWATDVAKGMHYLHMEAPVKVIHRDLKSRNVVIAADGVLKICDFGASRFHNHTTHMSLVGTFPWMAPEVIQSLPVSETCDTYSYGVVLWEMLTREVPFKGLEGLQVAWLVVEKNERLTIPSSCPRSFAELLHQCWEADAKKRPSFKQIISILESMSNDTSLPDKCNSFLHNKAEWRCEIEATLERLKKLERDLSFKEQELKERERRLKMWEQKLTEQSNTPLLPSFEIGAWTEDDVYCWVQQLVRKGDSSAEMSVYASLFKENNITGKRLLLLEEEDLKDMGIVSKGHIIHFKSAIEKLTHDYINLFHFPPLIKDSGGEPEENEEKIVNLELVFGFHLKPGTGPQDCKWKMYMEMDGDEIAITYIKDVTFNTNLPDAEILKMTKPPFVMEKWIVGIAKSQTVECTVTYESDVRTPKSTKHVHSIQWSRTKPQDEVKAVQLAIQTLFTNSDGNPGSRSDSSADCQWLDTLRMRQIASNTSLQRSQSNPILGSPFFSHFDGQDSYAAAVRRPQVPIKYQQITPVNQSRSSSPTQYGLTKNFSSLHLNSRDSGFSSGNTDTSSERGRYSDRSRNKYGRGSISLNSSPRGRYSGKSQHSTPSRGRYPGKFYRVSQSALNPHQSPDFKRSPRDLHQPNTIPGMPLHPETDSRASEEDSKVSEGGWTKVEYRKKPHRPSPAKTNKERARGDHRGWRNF
# [11] = biological target: Phosphorylase b kinase gamma catalytic chain, skeletal muscle/heart isoform (Homo sapiens) (UniProt Q16816); test: Selectivity interaction (Kinase panel (Invitrogen)) EUB0000639a PHKG1; conditions: at 200 nM
# Phosphorylase b kinase gamma catalytic chain, skeletal muscle/heart isoform (Homo sapiens), sequence (Q16816 whole entry, looked up, canonical isoform): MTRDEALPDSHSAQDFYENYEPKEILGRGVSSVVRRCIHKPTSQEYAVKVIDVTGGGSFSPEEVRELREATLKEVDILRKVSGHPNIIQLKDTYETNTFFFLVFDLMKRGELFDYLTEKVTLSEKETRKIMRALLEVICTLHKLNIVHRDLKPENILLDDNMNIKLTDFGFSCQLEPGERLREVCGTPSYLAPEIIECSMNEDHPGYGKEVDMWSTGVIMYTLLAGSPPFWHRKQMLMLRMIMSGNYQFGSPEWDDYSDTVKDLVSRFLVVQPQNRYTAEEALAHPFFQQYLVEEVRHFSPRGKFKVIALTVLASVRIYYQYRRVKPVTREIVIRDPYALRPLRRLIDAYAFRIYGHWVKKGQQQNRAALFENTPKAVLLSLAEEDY
# [12] = biological target: Phosphatidylinositol 3-kinase catalytic subunit type 3 (Homo sapiens, UniProt Q8NEB9); test: Selectivity interaction (ActivX KiNativ screen (kinase selectivity in THP-1 cell lysates)) EUB0000639a PIK3C3; type: subcellular; conditions: lysate, at 0.04 µM
# Phosphatidylinositol 3-kinase catalytic subunit type 3, sequence (Q8NEB9 whole entry): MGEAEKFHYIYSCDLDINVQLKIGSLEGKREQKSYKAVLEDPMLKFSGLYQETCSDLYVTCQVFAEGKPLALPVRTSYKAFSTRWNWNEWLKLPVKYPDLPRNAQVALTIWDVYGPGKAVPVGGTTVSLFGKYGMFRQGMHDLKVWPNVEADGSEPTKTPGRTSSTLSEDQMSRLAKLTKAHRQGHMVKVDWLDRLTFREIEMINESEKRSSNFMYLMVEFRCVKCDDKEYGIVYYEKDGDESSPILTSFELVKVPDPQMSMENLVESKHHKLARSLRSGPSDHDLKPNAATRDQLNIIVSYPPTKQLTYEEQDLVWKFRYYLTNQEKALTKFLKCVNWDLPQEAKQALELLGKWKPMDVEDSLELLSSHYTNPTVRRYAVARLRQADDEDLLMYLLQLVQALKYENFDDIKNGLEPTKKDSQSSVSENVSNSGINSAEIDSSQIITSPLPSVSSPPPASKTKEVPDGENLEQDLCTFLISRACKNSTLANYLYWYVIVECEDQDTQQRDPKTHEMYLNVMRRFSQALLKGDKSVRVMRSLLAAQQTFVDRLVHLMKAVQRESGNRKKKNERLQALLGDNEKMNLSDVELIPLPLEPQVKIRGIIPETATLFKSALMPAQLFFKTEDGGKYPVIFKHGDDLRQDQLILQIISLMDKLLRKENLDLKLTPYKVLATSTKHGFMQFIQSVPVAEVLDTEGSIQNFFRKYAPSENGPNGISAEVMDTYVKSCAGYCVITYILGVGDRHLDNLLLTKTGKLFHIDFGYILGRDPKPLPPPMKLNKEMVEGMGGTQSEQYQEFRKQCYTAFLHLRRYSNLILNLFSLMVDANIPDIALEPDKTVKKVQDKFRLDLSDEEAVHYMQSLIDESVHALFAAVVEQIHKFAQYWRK
# [13] = biological target: T1, Serine/threonine-protein kinase LATS1 (Homo sapiens) (UniProt O95835); test: Selectivity interaction (KinomeScan (DiscoverX)) EUB0000695a LATS1; conditions: at 100 nM
# T1 sequence (whole entry): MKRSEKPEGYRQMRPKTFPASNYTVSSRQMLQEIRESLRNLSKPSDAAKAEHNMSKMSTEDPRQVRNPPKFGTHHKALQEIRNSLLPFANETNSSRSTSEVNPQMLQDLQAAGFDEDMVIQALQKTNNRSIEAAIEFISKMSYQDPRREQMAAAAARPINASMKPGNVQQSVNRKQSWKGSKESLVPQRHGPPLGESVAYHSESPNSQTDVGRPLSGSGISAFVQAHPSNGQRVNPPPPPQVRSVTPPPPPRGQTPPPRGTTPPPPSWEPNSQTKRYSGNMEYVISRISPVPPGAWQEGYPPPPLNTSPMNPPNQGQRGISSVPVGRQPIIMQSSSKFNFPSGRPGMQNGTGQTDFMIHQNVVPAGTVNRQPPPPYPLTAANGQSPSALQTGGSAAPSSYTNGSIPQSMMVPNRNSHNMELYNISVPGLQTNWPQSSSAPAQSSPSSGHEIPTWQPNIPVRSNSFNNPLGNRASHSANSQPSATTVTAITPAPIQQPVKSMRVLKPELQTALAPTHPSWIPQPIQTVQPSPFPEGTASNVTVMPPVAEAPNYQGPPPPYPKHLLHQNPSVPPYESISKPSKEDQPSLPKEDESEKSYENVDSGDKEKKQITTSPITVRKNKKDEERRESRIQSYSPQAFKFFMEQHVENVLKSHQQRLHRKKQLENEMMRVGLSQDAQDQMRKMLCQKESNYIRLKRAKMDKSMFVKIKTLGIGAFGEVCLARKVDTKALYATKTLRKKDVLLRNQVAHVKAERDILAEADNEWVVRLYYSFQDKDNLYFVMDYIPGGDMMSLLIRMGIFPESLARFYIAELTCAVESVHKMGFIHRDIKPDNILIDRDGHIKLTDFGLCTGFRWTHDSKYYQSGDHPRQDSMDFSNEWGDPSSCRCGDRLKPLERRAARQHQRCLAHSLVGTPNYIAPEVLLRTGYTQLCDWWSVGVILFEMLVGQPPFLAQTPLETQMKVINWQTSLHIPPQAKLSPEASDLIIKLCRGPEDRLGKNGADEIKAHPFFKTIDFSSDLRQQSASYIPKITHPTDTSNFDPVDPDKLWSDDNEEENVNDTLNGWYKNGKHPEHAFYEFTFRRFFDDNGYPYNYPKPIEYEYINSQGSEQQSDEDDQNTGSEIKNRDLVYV
# [14] = biological target: Casein kinase I isoform gamma-3 (Homo sapiens) (UniProt Q9Y6M4); conditions: at 10 µM
# [15] = biological target: RAF proto-oncogene serine/threonine-protein kinase (Homo sapiens) (UniProt P04049); test: Selectivity interaction (KinomeScan (DiscoverX)) EUB0000092b RAF1; conditions: at 10 µM
# [16] = biological target: Serine/threonine-protein kinase pim-3 (Homo sapiens) (UniProt Q86V86); test: Selectivity interaction (KinomeScan (DiscoverX)) EUB0000045b PIM3
# [17] = system: Tyrosine-protein kinase ABL1 (Homo sapiens), P00519 [Q252H]; test: Selectivity interaction (KinomeScan (DiscoverX)) EUB0000045b ABL1; conditions: at 1 µM
# [18] = biological target: Phosphorylase b kinase gamma catalytic chain, skeletal muscle/heart isoform (Homo sapiens) (UniProt Q16816); test: Selectivity interaction (KinomeScan (DiscoverX)) EUB0000045b PHKG1
# [19] = biological target: Homeodomain-interacting protein kinase 1 (Homo sapiens, UniProt Q86Z02); test: Selectivity interaction (KinomeScan (DiscoverX)) EUB0000045b HIPK1
# Homeodomain-interacting protein kinase 1, sequence (Q86Z02 whole entry, looked up): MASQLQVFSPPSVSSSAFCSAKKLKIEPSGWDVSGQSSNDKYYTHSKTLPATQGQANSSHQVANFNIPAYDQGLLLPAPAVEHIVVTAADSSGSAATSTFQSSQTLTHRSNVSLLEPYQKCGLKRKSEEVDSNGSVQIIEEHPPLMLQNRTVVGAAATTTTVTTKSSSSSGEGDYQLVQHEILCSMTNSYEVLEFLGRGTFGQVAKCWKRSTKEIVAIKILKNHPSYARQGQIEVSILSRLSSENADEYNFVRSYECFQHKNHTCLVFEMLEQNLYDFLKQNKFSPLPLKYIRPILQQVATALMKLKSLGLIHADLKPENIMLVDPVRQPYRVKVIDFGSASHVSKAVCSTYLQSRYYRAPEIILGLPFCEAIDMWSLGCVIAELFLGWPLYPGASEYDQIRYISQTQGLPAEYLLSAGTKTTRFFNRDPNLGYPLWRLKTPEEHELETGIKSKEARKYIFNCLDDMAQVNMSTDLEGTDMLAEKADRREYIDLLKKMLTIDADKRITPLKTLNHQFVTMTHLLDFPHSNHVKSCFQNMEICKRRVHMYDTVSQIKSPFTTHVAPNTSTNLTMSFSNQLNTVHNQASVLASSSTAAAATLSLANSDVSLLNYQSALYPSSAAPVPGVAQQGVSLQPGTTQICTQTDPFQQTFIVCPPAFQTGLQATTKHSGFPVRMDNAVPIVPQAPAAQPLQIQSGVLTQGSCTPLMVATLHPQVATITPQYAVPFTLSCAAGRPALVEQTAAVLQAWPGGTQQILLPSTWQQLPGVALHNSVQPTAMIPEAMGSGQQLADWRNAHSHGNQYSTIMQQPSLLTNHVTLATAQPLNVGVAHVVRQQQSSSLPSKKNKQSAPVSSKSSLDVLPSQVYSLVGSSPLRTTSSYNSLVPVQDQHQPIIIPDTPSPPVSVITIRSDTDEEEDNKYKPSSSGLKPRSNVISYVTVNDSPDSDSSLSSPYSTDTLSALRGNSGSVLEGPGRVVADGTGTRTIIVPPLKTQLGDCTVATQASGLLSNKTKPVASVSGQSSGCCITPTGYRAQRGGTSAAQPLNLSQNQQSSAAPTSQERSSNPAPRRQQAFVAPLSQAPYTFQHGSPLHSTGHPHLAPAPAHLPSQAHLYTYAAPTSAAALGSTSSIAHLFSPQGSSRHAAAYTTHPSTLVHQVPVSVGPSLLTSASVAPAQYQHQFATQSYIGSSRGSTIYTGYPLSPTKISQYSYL
# [20] = biological target: Tyrosine-protein kinase JAK1 (Homo sapiens, UniProt P23458); test: Selectivity interaction (KinomeScan (DiscoverX)) EUB0000655a JAK1; conditions: at 10 µM
# [21] = biological target: Muscarinic acetylcholine receptor M3 (Homo sapiens, UniProt P20309); test: Selectivity interaction (GPCR panel (PDSP screen)) EUB0000311b CHRM3; conditions: at 10 µM
# Muscarinic acetylcholine receptor M3, sequence (P20309 whole entry, looked up): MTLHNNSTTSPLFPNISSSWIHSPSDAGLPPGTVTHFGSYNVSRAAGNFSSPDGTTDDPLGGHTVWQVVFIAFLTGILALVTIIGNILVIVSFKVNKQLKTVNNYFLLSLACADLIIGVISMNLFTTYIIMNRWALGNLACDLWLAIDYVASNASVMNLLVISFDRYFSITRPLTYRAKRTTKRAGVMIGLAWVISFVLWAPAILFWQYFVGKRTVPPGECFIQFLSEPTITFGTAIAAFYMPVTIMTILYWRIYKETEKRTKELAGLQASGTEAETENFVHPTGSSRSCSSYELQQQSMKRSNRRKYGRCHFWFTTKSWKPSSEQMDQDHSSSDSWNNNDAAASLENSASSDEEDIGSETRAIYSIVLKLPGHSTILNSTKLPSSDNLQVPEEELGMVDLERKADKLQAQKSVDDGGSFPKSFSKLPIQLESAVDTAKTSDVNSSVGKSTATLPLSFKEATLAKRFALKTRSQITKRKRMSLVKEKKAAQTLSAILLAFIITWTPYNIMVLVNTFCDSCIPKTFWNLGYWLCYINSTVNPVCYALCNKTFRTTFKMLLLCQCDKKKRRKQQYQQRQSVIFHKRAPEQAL
# [22] = biological target: Proto-oncogene tyrosine-protein kinase Src (Homo sapiens, UniProt P12931); test: Selectivity interaction (KinomeScan (DiscoverX)) EUB0000618a SRC; conditions: at 10 µM
# Proto-oncogene tyrosine-protein kinase Src, sequence (P12931 2-536 limits assumed): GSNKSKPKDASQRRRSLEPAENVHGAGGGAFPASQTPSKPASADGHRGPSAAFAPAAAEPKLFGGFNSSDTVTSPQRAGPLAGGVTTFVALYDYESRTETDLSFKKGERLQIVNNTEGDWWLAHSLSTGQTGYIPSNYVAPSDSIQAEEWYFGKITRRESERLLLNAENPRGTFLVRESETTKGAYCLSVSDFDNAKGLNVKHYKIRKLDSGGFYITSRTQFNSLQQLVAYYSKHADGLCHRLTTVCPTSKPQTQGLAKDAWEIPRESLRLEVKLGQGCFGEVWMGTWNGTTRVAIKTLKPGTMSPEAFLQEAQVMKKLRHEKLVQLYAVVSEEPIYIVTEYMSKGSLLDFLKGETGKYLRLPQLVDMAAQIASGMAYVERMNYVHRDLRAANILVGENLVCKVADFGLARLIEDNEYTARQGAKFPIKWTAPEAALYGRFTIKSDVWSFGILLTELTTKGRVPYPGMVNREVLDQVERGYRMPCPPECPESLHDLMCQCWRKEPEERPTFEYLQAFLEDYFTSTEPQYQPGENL
# [23] = biological target: Insulin receptor-related protein (Homo sapiens) (UniProt P14616); test: Selectivity interaction (KinomeScan (DiscoverX)) EUB0000666a INSRR; conditions: at 10 µM
# [24] = biological target: Phosphatidylinositol 4,5-bisphosphate 3-kinase catalytic subunit beta isoform (Homo sapiens) (UniProt P42338); test: Selectivity interaction (KinomeScan (DiscoverX)) EUB0000666a PIK3CB; conditions: at 10 µM
structure (smiles),measurement,setting,value
CN(C)C/C=C/C(=O)Nc1ccc(C(=O)N2CCCC(Nc3ncc(Cl)c(-c4c[nH]c5ccccc45)n3)C2)cc1 (stereo unspecified),% of control,[1],0.55%
same,% of control,[2],90%
same,% of control,[3],91%
same,% of control,[4],99%
same,% of control,[5],100%
same,% of control,[6],99%
same,% of control,[7],70%
same,% of control,[8],71%
same,% of control,[9],88%
CC[C@@H]1[C@H](F)C(=O)N[C@@H]1COc1nccc2cc(C(N)=O)c(OC)cc12 [ZIMLOVISERTIB],% of inhibition,[10]; at 0.01 µM,-7.8%
same,% of inhibition,[10]; at 0.04 µM,-3.3%
same,% of inhibition,[10]; at 0.2 µM,9.5%
same,% of inhibition,[10]; at 1 µM,12.2%
same,% of inhibition,[10]; at 5 µM,-6.6%
same,% of inhibition,[11],16.7%
same,% of inhibition,[12],-7%
Cc1cc(F)c(C(=O)Nc2cccc(-c3nncn3C(C)C)n2)cc1-n1cnc(C2CC2)c1,% of control,[13],86%
CCN(CC)CCCCNc1ncc2cc(-c3cc(OC)cc(OC)c3)c(NC(=O)NC(C)(C)C)nc2n1,% of control,[14],100%
CCC(=O)N1CCN(c2ccc(-n3c(=O)ccc4cnc5ccc(-c6cnc7ccccc7c6)cc5c43)cc2C(F)(F)F)CC1,% of control,[15],48%
C=CC(=O)Nc1cc(-n2c(=O)ccc3cnc4ccc(-c5ccc(NS(C)(=O)=O)cc5)cc4c32)ccc1C,% of control,[16]; at 1 µM,83%
same,% of control,[16]; at 10 µM,82%
same,% of control,[17],95%
same,% of control,[18]; at 1 µM,86%
same,% of control,[18]; at 10 µM,97%
same,% of control,[19]; at 1 µM,100%
same,% of control,[19]; at 10 µM,56%
CN(C)CCOc1ccc(-c2nc(-c3ccncc3)c(-c3ccc4c(c3)CC/C4=N\O)[nH]2)cc1,% of control,[20],100%
CCc1ccccc1C(=O)Nc1n[nH]c2c(C)c(F)c(C3C(C#N)=C(C)N(C)C(C)=C3C#N)cc12 [BAY-3827],% of inhibition,[21],22.5%
O[C@H]1CC[C@H](Nc2ncc3nc(Nc4c(F)cc(F)cc4F)n([C@H]4CCOC4)c3n2)CC1,% of control,[22],72%
O=C(NOC[C@H](O)CO)c1ccc(F)c(F)c1Nc1ccc(I)cc1F,% of control,[23],81%
same,% of control,[24],100%
